Laboratory results: ChEMBL document CHEMBL3137667, “[Drug-induced liver injury; fourteenth updated edition of the bibliographic database of liver injuries and related drugs]” (Gastroenterol Clin Biol, 2004)

How the values were obtained:
[1] = human, serum
[2] = human
[3] = human; remark: listed apart in the source
[4] = human, serum, 4383 h
[5] = Highest frequency of moderate liver toxicity observed during clinical trials, expressed as a percentage. [column '% BIOL' in source]; settings: human
[6] = human; remark: listed apart in the source
[7] = Highest frequency of acute liver toxicity observed during clinical trials, expressed as a percentage. [column '% AIGUE' in source]; settings: human
[8] = human; remark: listed apart in the source
[9] = human; remark: listed apart in the source
[10] = human; remark: listed apart in the source
[11] = human; remark: listed apart in the source
[12] = human, serum; remark: listed apart in the source
[13] = human; remark: listed apart in the source
[14] = human; remark: listed apart in the source
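Throughout, for Hepatotoxicity (association with vascular disease): count of indexed literature references reporting vascular liver injury in humans, e.g. peliosis hepatitis, hepatic veno-occlusive disease or Budd-Chiari syndrome.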
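Throughout, for Hepatotoxicity (benign tumour): value is a count of indexed literature references citing a benign tumour confirmed by histopathology.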
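Throughout, for Hepatotoxicity (choleostasis): human cholestatic liver injury, shown by histopathology or by peak ALT or AST elevation over alkaline phosphatase ratio below 2, value counts indexed literature reports.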
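Throughout, for Hepatotoxicity (chronic liver disease): chronic liver injury confirmed by histopathology or persistently raised serum aminotransferase activity beyond 6 months, value given as the count of indexed literature references.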
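Throughout, for Hepatotoxicity (cirrhosis): value is a count of indexed literature references reporting cirrhosis confirmed by histopathology.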
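Throughout, for Hepatotoxicity (cytolytic): human cytolytic liver injury, shown by histopathology or by a ratio above 5 of peak ALT or AST elevation to alkaline phosphatase elevation, value counts indexed references.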
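Throughout, for Hepatotoxicity (granulomatous hepatitis): value is a count of indexed literature references reporting granulomatous liver disease confirmed by histopathology.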
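Throughout, for Hepatotoxicity (malignant tumour): malignant tumour confirmed by histopathology, value gives the count of indexed literature references reporting it.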
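Throughout, for Hepatotoxicity (severe hepatitis): human clinical data: severe hepatitis, meaning potentially life-threatening liver failure or clinically observed cases, the value counts how many indexed literature references report it.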
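Throughout, for Hepatotoxicity (steatosis): steatosis confirmed by histopathology, value is the count of indexed references.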

| Structure (SMILES) | Hepatotoxicity (moderate) [1] | Hepatotoxicity (choleostasis) ([2]; Liver) | Hepatotoxicity (granulomatous hepatitis) ([3]; Liver) | Hepatotoxicity (chronic liver disease) [4] | Hepatotoxicity (moderate) ([5]; Liver) | Hepatotoxicity (malignant tumour) [6] | Hepatotoxicity (acute) ([7]; Liver) | Hepatotoxicity (cirrhosis) [8] | Hepatotoxicity (association with vascular disease) [9] | Hepatotoxicity (severe hepatitis) ([10]; Liver) | Hepatotoxicity (steatosis) [11] | Hepatotoxicity (acute) [12] | Hepatotoxicity (benign tumour) [13] | Hepatotoxicity (cytolytic) ([14]; Liver) | Hepatotoxicity (choleostasis) [2] | Hepatotoxicity (granulomatous hepatitis) [3] | Hepatotoxicity (moderate) [5] | Hepatotoxicity (acute) [7] | Hepatotoxicity (severe hepatitis) [10] | Hepatotoxicity (cytolytic) [14] |
| --- | --- | --- | --- | --- | --- | --- | --- | --- | --- | --- | --- | --- | --- | --- | --- | --- | --- | --- | --- | --- |
| NC(CO)(CO)CO [TROMETHAMINE] | 0 | 0 | 0 | 0 | 0% | 0 | 0% | 0 | 0 | 2 | 0 | 2 | 0 | 2 | – | – | – | – | – | – |
| CCCC[C@@H]1CC(=O)[C@]2(O)O[C@@H]3[C@@H](NC)[C@@H](O)[C@@H](NC)[C@H](O)[C@H]3O[C@@H]2O1 [TROSPECTOMYCIN] | 2 | – | – | 0 | – | 0 | – | 0 | 0 | – | 0 | 0 | 0 | – | 0 | 0 | 33.3% | 0% | 0 | 0 |
| CC(C)C[C@H](NC(=O)[C@@H](O)[C@H](N)Cc1ccccc1)C(=O)O [UBENIMEX] | 1 | – | – | 0 | – | 0 | – | 0 | 0 | – | 0 | 0 | 0 | – | 0 | 0 | 2.4% | 0% | 0 | 0 |
| CC(C)[C@H](N)C(=O)OCC(CO)OCn1cnc2c(=O)nc(N)[nH]c21 (some centres undefined) [VALGANCICLOVIR] | 1 | – | – | 0 | – | 0 | – | 0 | 0 | – | 0 | 0 | 0 | – | 0 | 0 | 3% | 0% | 0 | 0 |
| COc1ccc(C(=O)N2CCN(c3ccc4c(c3)CCC(=O)N4)CC2)cc1OC [VESNARINONE] | 1 | – | – | 0 | – | 0 | – | 0 | 0 | – | 0 | 0 | 0 | – | 0 | 0 | 0.4% | 0% | 0 | 0 |
| CCOc1ccccc1OCC1CNCCO1 (centres undefined) [VILOXAZINE] | 2 | 0 | 0 | 0 | 0% | 0 | 0% | 0 | 0 | 0 | 0 | 1 | 0 | 1 | – | – | – | – | – | – |
| Cc1ncc(-c2csc(N=C(N)N)n2)[nH]1 [ZALTIDINE] | 1 | – | – | 0 | – | 0 | – | 0 | 0 | – | 0 | 1 | 0 | – | 0 | 0 | 94% | 8% | 0 | 1 |
| O=C(O)Cn1c(=O)n(Cc2ccc(Br)cc2F)c(=O)c2ccc(Cl)cc21 [ZENARESTAT] | 1 | – | – | 0 | – | 0 | – | 0 | 0 | – | 0 | 0 | 0 | – | 0 | 0 | 9.5% | 0% | 0 | 0 |
| O=C1Cc2cc(CCN3CCN(c4nsc5ccccc45)CC3)c(Cl)cc2N1 [ZIPRASIDONE] | 1 | – | – | 0 | – | 0 | – | 0 | 0 | – | 0 | 0 | 0 | – | 0 | 0 | 1.2% | 0% | 0 | 0 |
| C[C@H](CSC(=O)c1ccccc1)C(=O)N1C[C@@H](Sc2ccccc2)C[C@H]1C(=O)O [ZOFENOPRIL] | 1 | – | – | 0 | – | 0 | – | 0 | 0 | – | 0 | 0 | 0 | – | 0 | 0 | 5.3% | 0% | 0 | 0 |
| CN(C)CCc1c[nH]c2ccc(C[C@H]3COC(=O)N3)cc12 [ZOLMITRIPTAN] | 1 | – | – | 0 | – | 0 | – | 0 | 0 | – | 0 | 0 | 0 | – | 0 | 0 | 0% | 0% | 0 | 0 |
| NS(=O)(=O)Cc1noc2ccccc12 [ZONISAMIDE] | 2 | – | – | 0 | – | 0 | – | 0 | 0 | – | 0 | 0 | 0 | – | 0 | 0 | 4.2% | 0% | 0 | 0 |
| O=C(O)Cc1nn(Cc2nc3cc(C(F)(F)F)ccc3s2)c(=O)c2ccccc12 [ZOPOLRESTAT] | 1 | – | – | 0 | – | 0 | – | 0 | 0 | – | 0 | 0 | 0 | – | 0 | 0 | 11.6% | 0% | 0 | 0 |
| COc1cccc2c1C(=O)c1c(O)c3c(c(O)c1C2=O)C[C@@](O)(/C(C)=N/NC(=O)c1ccccc1)C[C@@H]3O[C@H]1C[C@H](N)[C@H](O)[C@H](C)O1 [ZORUBICIN] | 1 | – | – | 0 | – | 0 | – | 0 | 0 | – | 0 | 1 | 0 | – | 1 | 0 | 51.7% | 17.2% | 1 | 0 |
| CN(C)CCOC1=Cc2ccccc2Sc2ccc(Cl)cc21 [ZOTEPINE] | 8 | – | – | 0 | – | 0 | – | 0 | 0 | – | 0 | 0 | 0 | – | 0 | 0 | 34.8% | 0% | 0 | 0 |
| OCCN1CCN(CC/C=C2/c3ccccc3Sc3ccc(Cl)cc32)CC1 [ZUCLOPENTHIXOL] | 1 | – | – | 0 | – | 0 | – | 0 | 0 | – | 0 | 0 | 0 | – | 0 | 0 | 19% | 0% | 0 | 0 |
